Legend:
Polycomb protein EED [1] = target: T1, Polycomb protein EED (Homo sapiens, UniProt O75530); experiment: Binding affinity to GST tagged EED (unknown origin) after 1 hr by OG(488) probe based TR-FRET assay
Polycomb protein EED [2] = target: T1, Polycomb protein EED; experiment: Binding affinity to biotin labelled human EED (78 to 441 residues) by SPR assay
Polycomb protein EED [3] = target: T1, Polycomb protein EED; experiment: Binding affinity to His tagged human EED (77 to 441 residues) expressed in Escherichia coli BL21(DE3)-T1R by ITC method; conditions: read-out: Kd(app)

T1 sequence (O75530 whole entry, the tested form may be a part): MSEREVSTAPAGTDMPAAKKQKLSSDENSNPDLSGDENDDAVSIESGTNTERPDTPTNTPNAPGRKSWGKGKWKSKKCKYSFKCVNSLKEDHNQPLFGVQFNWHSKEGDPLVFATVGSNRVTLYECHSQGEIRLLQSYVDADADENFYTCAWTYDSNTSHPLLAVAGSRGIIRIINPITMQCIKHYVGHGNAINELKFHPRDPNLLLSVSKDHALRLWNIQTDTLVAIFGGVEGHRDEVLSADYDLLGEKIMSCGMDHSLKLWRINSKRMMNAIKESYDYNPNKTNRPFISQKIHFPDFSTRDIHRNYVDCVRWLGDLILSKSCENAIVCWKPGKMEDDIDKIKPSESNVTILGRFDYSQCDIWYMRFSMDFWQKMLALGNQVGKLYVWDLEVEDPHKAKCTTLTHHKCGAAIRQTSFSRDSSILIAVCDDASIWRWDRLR

Row | Ki (Polycomb protein EED [1]) [nM] | Kd (Polycomb protein EED [2]) [nM] | Kd (Polycomb protein EED [3]) [nM] | Structure (SMILES)
1 | 10 | 140 | 30 | Cc1cccc(F)c1CN1C[C@H](c2ccc(S(C)(=O)=O)cc2)[C@@H](N(C)C)C1
2 | 91 | 2600 |  | CN(C)[C@H]1CN(Cc2c(F)cccc2Br)C[C@@H]1c1ccc(O)cc1
3 | 450 | 9800 |  | CN(C)[C@H]1CN(Cc2c(F)cccc2Br)C[C@@H]1c1ccccn1
4 | 10 to 20 | 150 to 310 | 90 | CN(C)[C@H]1CN(Cc2c(F)cccc2Br)C[C@@H]1c1cn(C)c2ccccc12
5 | 12 | 210 |  | COc1ccc([C@H]2CN(Cc3c(C)cccc3F)C[C@@H]2N(C)C)cc1OC
6 | 1500 | 13400 |  | COc1ccccc1N1CCN(C(=O)c2ccccc2S(C)(=O)=O)CC1
7 | 18 | 200 | 110 | CC(=O)N1CCN(c2ccc([C@@H]3CN([C@@H]4CCc5cccc(F)c54)C[C@H]3N(C)C)cc2)CC1
8 | 290 | 1400 | 940 | Cc1cccc(F)c1CN1C[C@@H](N(C)C)[C@H](c2ccc(S(C)(=O)=O)cc2)C1
9 | 680 |  | 2500 | CN(C)c1cc(N2CCc3ccccc3C2)ccn1
10 | 3 | 43 |  | COc1ccc([C@H]2CN(C3CCc4cccc(F)c43)C[C@@H]2N(C)C)cc1OC (some centres not stated)
11 | 3 | 100 | 1140 | CC(=O)N1CCN(c2ccc([C@H]3CN([C@@H]4CCc5cccc(F)c54)C[C@@H]3N(C)C)cc2)CC1
12 | 0.7 | 4 | 2100 | CC(=O)N1CCN(c2ccc([C@H]3CN(C4CCc5cccc(F)c54)C[C@@H]3N(C)C)cc2)CC1 (some centres not stated)
13 | 18 | 300 |  | COc1ccc([C@H]2CN(Cc3c(F)cccc3Br)C[C@@H]2N(C)C)cc1OC
14 | 42 | 290 | 2200 | CC(=O)N1CCN(c2ccc([C@@H]3CN([C@H]4CCc5cccc(F)c54)C[C@H]3N(C)C)cc2)CC1
15 | 8 | 61 |  | CN(C)[C@H]1CN(Cc2c(F)cc(O)cc2Br)C[C@@H]1c1cn(C)c2ccccc12
16 | 80 | 3100 | 370 | CN(C)[C@@H]1CN(Cc2c(F)cccc2Br)C[C@H]1c1cn(C)c2ccccc12
17 | 0.3 | 1 | 10 | CC(=O)N1CCN(c2ccc([C@H]3CN([C@H]4CCc5cccc(F)c54)C[C@@H]3N(C)C)cc2)CC1
18 |  |  | 6 | Cc1cccc(F)c1CN1C[C@H](c2cn(C)c3ccccc23)[C@@H](N(C)C)C1
19 | 110 | 4800 |  | CN(C)[C@H]1CN(Cc2c(F)cccc2Br)C[C@@H]1c1ccccc1
20 | 3 | 20 |  | CC(=O)N1CCN(c2ccc([C@H]3CN(Cc4c(C)cccc4F)C[C@@H]3N(C)C)cc2)CC1
21 | 950 | 22000 | 5200 | c1ccc2c(c1)CCN(c1ccncc1)C2
22 |  |  | 10 | CN(C)[C@H]1CN([C@H]2CCc3cccc(F)c32)C[C@@H]1c1cn(C)c2ccccc12

Reference: ChEMBL document CHEMBL4017527, “Are We There Yet? Applying Thermodynamic and Kinetic Profiling on Embryonic Ectoderm Development (EED) Hit-to-Lead Program” (J Med Chem, 2017)
